Values joined by “and” are separate entries in the source; they are usually repeats but may differ in a detail not shown here. Identical values can stand only once. “Also recorded” adds a separate entry of the source.
Assays:
Polio 1 = format: cell-based; conditions: in words; CPE trial
HSV-1 [1] = assay: Plaque assay, HSV-1 (Examples 8-11); format: cell-based, Herpes simplex virus type I
Echo 5 = assay: CPE trial on Echo 5 (Examples 12-14); format: cell-based; conditions: in words
HSV-1 [2] = assay: CPE trial on HSV-1 (Examples 15-16); format: cell-based, Herpes simplex virus type I; conditions: in words
HSV-2 [3] = assay: Plaque assay, HSV-2 (Examples 5-7); format: cell-based, Herpes simplex virus type II
HSV-2 [4] = assay: CPE trial on HSV-2 (Examples 15-16); format: cell-based, Herpes simplex virus type II
Adenovirus type 4 = assay: CPE trial on Adenovirus type 4 using KB cells (Example 17); format: cell-based
[5] = system: Herpes simplex virus type 1 (HSV-1); assay: Neutralization of viral cytopathogenic effect (CPE) on BGM cells, HSV-1 (Example 3); format: cell-based
Method: (§1) Evaluation of the compound is made using a simple neutralization of viral cytopathogenic effect (CPE) on Buffalo Green Monkey (BGM) cells using two tubes for each dilution of virus. […] In order to evaluate zinc oxyacetate, the compound (or the compound in equal weight admixture with lauryl alcohol) is incubated for 1 hour with the virus prior to making ten-fold serialdilutions and innoculating the BGM tubes. The amount of virus used is 0.1 ml. The amount of test material used is 0.1 ml of a solution containing 0.1% of Tween 80 and 0.1% of the test material.

Trichophyton rubrum = assay: Inhibition of molds, size of cleared area (Example 4); format: cell-based; conditions: 0.1 ml of a 1% solution containing 0.1% Tween 80
Method: (§2) Bread mold is innoculated on a nutrient plate.
(§3) In a test similar to that of Example 2, zinc oxyacetate is tested for inhibition of four bread molds. The amount of zinc oxyacetate is 0.1 ml of a 1% solution containing 0.1% Tween 80. The amount of mold is 0.1 ml.

Microsporum canis = assay: as above; format: cell-based; conditions: 0.1 ml of a 1% solution containing 0.1% Tween 80
Method: as §2, §3

[6] = system: Trichophyton mentagrophytes; assay: as above; format: cell-based; conditions: 0.1 ml of a 1% solution containing 0.1% Tween 80
Method: as §2, §3

Candida albicans = assay: as above; format: cell-based; conditions: 0.1 ml of a 1% solution containing 0.1% Tween 80
Method: as §2, §3

HSV-2 [7] = assay: Neutralization of viral cytopathogenic effect (CPE) on BGM cells, HSV-2 (Example 3); format: cell-based, Herpes simplex virus type II
Method: as §1

Staphylococcus aureus [8] = assay: Filter paper disc bacterial inhibition test on agar plates (Example 1); format: cell-based; conditions: for Clear Area, Average: average of plates 1-4; for Clear Area: single plate, overnight at 37° C.
Method: (§4) A stock (1%) solution is prepared by dissolving 0.1 gm of zinc ocyacetate in 10 ml of water. A 1/2 dilution (0.5% solution) is made by admixing 5 ml of the stock solution and 5 ml of water. A 1/4 dilution (0.25% solution) is made by admixing 5 ml of the 0.5% solution and 5 ml of water. A 1/10 dilution (0.1% solution) is made by admixing 1 ml of the stock (1%) solution and 9 ml of water. Fine filter paper discs of 1 cm diameter are placed in each of four clean petri dishes. In dish #1, 0.1 ml of the 1% solution is dropped onto each filter disc and allowed to air dry. The same is done in dish #2 except that the 0.5% solution is used. The same is done on dishes #3 and #4 except that the 0.25 and 0.1% solutions, respectively,are used. One ml of a previously prepared 1×10^-4 dilution of a broth bacterial culture (Staphylococcus aureus) is then spread evenly over the entire surface of four agar plates. At the 12 o'clock position on each of the agar plates, a disc from dish #1 (1% solution) is placed. Discs from dishes #2, #3 and #4 are similarly placed at the 3 o'clock, 6 o'clock, and 9 o'clock positions, respectively, of each of the four plates. Each disc is gently pressed to enure good contact with the agar surface. For comparison purposes, a further stock solution of zinc sulphate (1%) is made up and an identical series of tests made. Each plate is incubated overnight at 37° C. and the area of inhibition--the clear area around each disc--is measured.

Staphylococcus aureus [9] = assay: as above; format: cell-based; conditions: .01% solution (as headed); for Clear Area, Average: average of plates 1-4; for Clear Area: single plate, overnight at 37° C., -- counted as zero in the average
Bread mold = assay: Disc growth inhibition of bread mold on nutrient plate (Example 2); format: cell-based
Method: as §4, with “measured. Bread mold is innoculated on a nutrient plate.” for “measured.”

[10] = Visible precipitate under sensitivity disc (Example 1); format: physicochemical; conditions: 1% and 0.50% concentration
Method: as §4, with “For comparison purposes, a further stock solution of zinc sulphate (1%) is made up and an identical series of tests made.” left out

Compound: CC(=O)[O-].CC(=O)[O-].CC(=O)[O-].CC(=O)[O-].CC(=O)[O-].CC(=O)[O-].[Mn+2].[Mn+2].[Mn+2].[Mn+2].[O-2] [Manganese compound, Magnanese oxyacetate]
- effectiveness against Polio 1 (Polio 1): not effective
- plaque assay result, HSV-1 (HSV-1 [1]; HSV-1 10^-2 (Example 8), 0% methylcellulose overlay, control TNC (too numerous to count)): 90
- plaque assay result, HSV-1 (HSV-1 [1]; HSV-1 10^-2 (Example 8), 1.5% methylcellulose overlay, control ND, Irr = irregular results, TNC = too numerous to count): Irr
- plaque assay result, HSV-1 (HSV-1 [1]; HSV-1 10^-2 (Example 8), 2% methylcellulose overlay, control ND, Irr = irregular results, TNC = too numerous to count): Irr
- plaque assay result, HSV-1 (HSV-1 [1]; HSV-1 10^-3 (Example 9), 0% methylcellulose overlay, control 34): 11
- plaque assay result, HSV-1 (HSV-1 [1]; HSV-1 10^-3 (Example 9), 1.5% methylcellulose overlay, control TNC): 45
- plaque assay result, HSV-1 (HSV-1 [1]; HSV-1 10^-3 (Example 9), 2% methylcellulose overlay, control 115): 46
- plaque assay result, HSV-1 (HSV-1 [1]; HSV-1 10^-4 (Example 10), 0% methylcellulose overlay, control 6): 4
- plaque assay result, HSV-1 (HSV-1 [1]; HSV-1 10^-4 (Example 10), 1.5% methylcellulose overlay, control 38): 5
- plaque assay result, HSV-1 (HSV-1 [1]; HSV-1 10^-4 (Example 10), 2% methylcellulose overlay, control 10): 5
- plaque assay result, HSV-1 (HSV-1 [1]; HSV-1 10^-5 (Example 11), 0% methylcellulose overlay, control 5): 0
- plaque assay result, HSV-1 (HSV-1 [1]; HSV-1 10^-5 (Example 11), 1.5% methylcellulose overlay, control 3): 0
- plaque assay result, HSV-1 (HSV-1 [1]; HSV-1 10^-5 (Example 11), 2% methylcellulose overlay, control 3): 0
- effectiveness against Echo 5 (Echo 5): not effective
- effectiveness against HSV-1 (HSV-1 [2]): probably not effective against HSV-1
- solubility (in words) (Solubility in 2% FBS-MEM): readily soluble
- plaque assay result, HSV-2 (HSV-2 [3]; HSV-2 10^-1 (Example 5), control ND): Toxic
- plaque assay result, HSV-2 (HSV-2 [3]; HSV-2 10^-2 (Example 6), control 39): 4
- plaque assay result, HSV-2 (HSV-2 [3]; HSV-2 10^-3 (Example 7), control 5): 0
- inhibition of HSV-2 (plaque assay) (HSV-2 [3]; in words): less effective than the zinc composition; also recorded: both substances inhibited HSV-2
- size of the BGM cells (HSV-2 [4]; 10^-1 dilution of HSV-2): increase in the size of the BGM cells
- inhibition of HSV-2 (HSV-2 [4]; 10^-1 dilution of HSV-2, BGM cells): inhibit the virus completely
- inhibition of HSV-2 (HSV-2 [4]; 10^-2 and 10^-3 dilution, one tube in each dilution, later typical syncytial formation): early inhibition of virus
- CPE result (titer column), HSV-2 (HSV-2 [4]; BGM cells, control 10^-2.5): Inhibition
- effectiveness against HSV-2 (HSV-2 [4]; in words, CPE trial): effective against HSV-2
- type of action against HSV-2 (viristatic / viricidal) (HSV-2 [4]; in words, CPE trial): apparent viristatic action
- titer, Adenovirus type 4 (Adenovirus type 4; in all cases): 10^-3
- effectiveness in inhibiting the CPE of Adenovirus type 4 (Adenovirus type 4; in words): neither the test compound nor Zn carrier are effective

Compound: CC(=O)O.CC(=O)O.CC(=O)O.CC(=O)O.CC(=O)O.CC(=O)O.[O-2].[Zn+2].[Zn+2].[Zn+2].[Zn+2] [Zinc oxyacetate, zibnc, hexakis(acetato) oxotetra]
- Titer based on 4+(100%) CPE, HSV-1 ([5]; BGM cells, 1 hour preincubation with virus, 0.1% test material, 0.1% Tween 80, control 10^-4): 10^-3
- effectiveness in inhibiting the virus ([5]; in words, HSV-1, BGM cells): effective in inhibiting the virus
- log inhibition, HSV-1 ([5]; titer reduction versus control): 1 log
- Size of cleared area, Trichophyton rubrum (Trichophyton rubrum): 5 mm
- Size of cleared area, Microsporum canis (Microsporum canis): 8 mm
- Size of cleared area, Trichophyton mentagrophytes [6]: 9 mm
- Size of cleared area, Candida albicans (Candida albicans): 9 mm
- Titer based on 4+(100%) CPE, HSV-2 (HSV-2 [7]; BGM cells, 1 hour preincubation with virus, 0.1% test material, 0.1% Tween 80, control 10^-2): 0
- effectiveness in inhibiting the virus (HSV-2 [7]; in words, HSV-2, BGM cells): effective in inhibiting the virus
- log inhibition, HSV-2 (HSV-2 [7]; titer reduction versus control): 2 log
- Clear Area, Average (Staphylococcus aureus [8]; 1% solution): 1.82 cm
- Clear Area (Staphylococcus aureus [8]; 1% solution): 1.85 cm and 1.80 cm and 1.78 cm
- Clear Area, Average (Staphylococcus aureus [8]; .25% solution): 1.37 cm
- Clear Area (Staphylococcus aureus [8]; .25% solution): 1.32 cm and 1.35 cm and 1.40 cm and 1.42 cm
- Clear Area, Average (Staphylococcus aureus [8]; .5% solution): 1.64 cm
- Clear Area (Staphylococcus aureus [8]; .5% solution): 1.70 cm and 1.52 cm and 1.61 cm and 1.72 cm
- bacteriostatic qualities (Staphylococcus aureus [8]; in words, versus zinc sulphate): bacteriostatic qualities comparable to those of zinc sulphate
- Clear Area, Average (Staphylococcus aureus [9]): 0.31 cm
- Clear Area (Staphylococcus aureus [9]): 1.25 cm
- growth inhibition of bread mold (Bread mold; 1% solution): good growth inhibition
- growth inhibition of bread mold (Bread mold; less concentrated solution): does not noticeably inhibit growth
- growth inhibition of bread mold (Bread mold; undiluted material): good growth inhibition

Compound: O=S(=O)([O-])[O-].[Zn+2] [Zinc sulphate, zinc sulphate, reference compound]
- Clear Area, Average (Staphylococcus aureus [8]; 1% solution): 1.66 cm
- Clear Area (Staphylococcus aureus [8]; 1% solution): 1.80 cm and 1.72 cm and 1.71 cm and 1.42 cm
- Clear Area, Average (Staphylococcus aureus [8]; .25% solution): 1.37 cm
- Clear Area (Staphylococcus aureus [8]; .25% solution): 1.40 cm and 1.39 cm and 1.31 cm
- Clear Area, Average (Staphylococcus aureus [8]; .5% solution): 1.44 cm
- Clear Area (Staphylococcus aureus [8]; .5% solution): 1.50 cm and 1.45 cm and 1.41 cm and 1.40 cm
- visible precipitate under each sensitivity disc [10]: a visible precipitate formed under each sensitivity disc
- Clear Area, Average (Staphylococcus aureus [9]): 0.61 cm
- Clear Area (Staphylococcus aureus [9]): 1.22 cm and 1.21 cm

— patent US4407818A, “Anti viral, anti bacterial and/or anti fungal composition containing metal oxyalkylate” (Bio-Systems Research, Inc., priority 1981, dated 1983)
